This is an account of results in US12060588B2, “Methods of editing DNA methylation” (Whitehead Institute for Biomedical Research, priority 2016, dated 2024).

In assay [1] the test system is BDNF promoter IV / BDNF expression. Description: BDNF expression in mouse cortical neurons (RT-qPCR). It counts as cell-based. The method, then: (§1) FIGS. 3A-3E depict targeted demethylation of BDNF promoter IV by dCas9-Tet1 to activate BDNF in neurons. FIG. 3A provides a schematic representation of targeting BDNF promoter IV by dCas9-Tet1 (dC-T) with specific gRNAs to erase methylation and activate BDNF expression. […] Bars are mean t SD of three biological replicates. FIG. 3C provides representative confocal images for BDNF induction in FIG. 3B. Top panel: BDNF expression was induced by 50 mM KCl treatment for 6 hrs. […] Stained in red for MAP2 (top two panels) or Cherry (bottom two panels), green for BDNF, blue for DAPI and grey for dCas9. Scale bar: 50 um. FIG. 3D depicts bisulfite sequencing of neurons in FIG. 3C. […] Shown is the mean percentage±SD of two biological replicates.
FIGS. 11A-11L depict targeted demethylation of BDNF promoter IV by dCas9-Tet1 in neurons. […] PAM for each gRNA is highlighted by a red box. […] Note that cultured neurons were treated with AraC on DIV2 to halt cell division in glial cells and neural progenitors. […] FIG. 11C provides EDU labeling analysis for the mouse primary neurons over the course of KCl treatment for 24 hrs. Note that extremely few EDU positive cells were observed. Stained in red for EDU, green for MAP2 and DAPI for nuclei. Scale bar: 500 um. FIG. 11D Upper panel: provides quantification of neuronal density over the course of KCl treatment. The post-mitotic neuron density remains steadily around 4.5×10^4/cm2 over time. Bars represent mean±SD of three experimental replicates. Lower panel: provides quantification of the EDU positive cells over the course of KCl treatment. Less than 2% of the cells are EDU-positive over 24 hrs. Bars represent mean±SD of three experimental replicates. FIG. 11E provides confocal micrographs of BDNF induction by ectopic expression of dCas9-Tet1 and a set of 4 gRNAs targeting BDNF promoter IV. Stained in green for BDNF, magenta for MAP2, red for Cherry and blue for DAPI. Note that the lentiviral infection efficiency is close to 100% in these neurons. Scale bar: 50 um. […] Bars represent mean±SD of three experimental replicates. […] FIG. 11J depicts DIV3 mouse cortical neurons were treated with ABT (50 uM) for 6 hours and then treated with KCl (50 mM) for 6-hour before harvest for RT-qPCR analysis. Bars represent mean±SD of three experimental replicates. FIG. 11K depicts DIV3 mouse cortical neurons were treated with 2-Hydroxyglutarate (10 mM) for 2 hours and then treated with KCl (50 mM) for 6-hour before harvest for RT-qPCR analysis. Bars represent mean±SD of three experimental replicates. FIG. 11L depicts DIV3 mouse cortical neurons derived from wild-type or Tet1 knockout E17.5 embryos were subject to time course KCl treatment experiments (6, 9 and 12 h). Bars represent mean±SD of three experimental replicates.
DNA replication-independent active demethylation has been proposed to operate in post-mitotic neurons (Guo et al., 2011; Martinowich et al., 2003). To test whether active demethylation can be induced in post-mitotic neurons, we applied the dCas9-Tet1 system to study the regulation of the BDNF gene. BDNF expression can be induced by neuronal activity accompanied by demethylation of its promoter IV (Chen et al., 2003; Martinowich et al., 2003). We designed 4 gRNAs targeting 11 CpGs in BDNF promoter IV (FIG. 11A) to determine whether dCas9-Tet1 can activate BDNF by inducing demethylation of this promoter (FIG. 3A). Mouse cortical neurons were isolated from E17.5 embryos and cultured for two days in vitro (DIV2) following a well-established experimental procedure for producing primary neuronal culture (Ebert et al., 2013). […] Neurons at day 3 in culture (DIV3) were infected with lentiviral vectors expressing dCas9-Tet1 with or without the 4 gRNAs at almost 100% transduction efficiency (FIG. 11E). At 48-hour post infection some of the cultures were treated with KCl to induce neuronal activity. […] We performed bisulfite sequencing to examine the methylation state of BDNF promoter IV. […]
A general note: In qPCR the cycle at which signal appears reflects the starting amount.

In assay [2] the test system is C3H10T1/2 mouse embryonic fibroblast cells. Put plainly: Fibroblast-to-myoblast conversion assay. It counts as cell-based. The note with it: for fraction of mock C3H10T1/2 cells expressing MyoD: after 5-Aza treatment (1 uM, 24-hour). An excerpt: FIGS. 4A-4H depict targeted demethylation of the MyoD distal enhancer by dCas9-Tet1 to facilitate conversion of fibroblasts to myoblasts. FIG. 4A provides a schematic representation of targeting the MyoD distal enhancer (DE) region in DMR-5 by dCas9-Tet1 (dC-T) with specific gRNAs. […] Cherry positive cells were FACS sorted for RT-qPCR analysis. Bars represent mean±SD of three experimental replicates. FIG. 4C bisulfite sequencing of cells in FIG. 4B. […] Shown is the mean percentage±SD of two biological replicates. […] C3H10T1/2 cells were plated as 1×10^4 cells per well in 6-well plate, and then infected with lentiviruses expressing dC-T and gRNAs targeting DMR-5, or a catalytic dead form of Tet1 (dC-dT) with target gRNAs. 24-hour post infection, cells were treated with vehicle control (HEPES buffer) or 5-Azacytidine (1 uM) for 24-hour, and then harvested after 14 days for immunofluorescence staining. Stained in green for MyoD, magenta for MHC and blue for DAPI. Scale bar: 200 um. FIG. 4F provides quantification of MyoD positive cell ratio 14-day post infection with lentiviruses expressing dC-T alone, dC-T with gRNAs targeting DMR-5, and dC-dT with the target gRNAs. […] FIG. 4H provides quantification of myotube density in MHC positive clusters with more than 2 or 5 nuclei at 14-days after infection. […] Data are quantified from 3-5 representative images for F-H. Bars represent mean±SD.
FIGS. 12A-12J depict targeted demethylation of the MyoD DMR-5 by dCas9-Tet1 and conversion of fibroblasts to myoblasts. […] PAM for each sgRNA is highlighted by a red box. FIG. 12B provides experimental scheme of the fibroblast-to-myoblast conversion assay. Briefly, C3H10T1/2 mouse embryonic fibroblast cells were plated as 1×10^4 cells per well in 6-well plate, and then infected with lentiviruses expressing dCas9-Tet1 and target gRNAs. 24-hour post infection, cells were optionally treated with 5-Azacytidine (1 uM) for 24-hour (labeled in red), and harvested for immunofluorescence staining at different time points (day-14, -16 and -25, labeled in dark blue) with medium change every other day. Scale bar: 100 um. […] Stained in green for MHC, red for MyoD and blue for DAPI. Scale bar: 200 um. FIG. 12D depicts a fraction of mock C3H10T1/2 cells expressing MyoD at different times after 5-Aza treatment. The fraction of cells expressing MyoD increases from around 6% at day 14 to around 13% at day 16 and reached around 20% at day 25. Bars represent mean±SD. FIG. 12E provides number of nuclei in MHC+ cell clusters (grouped as 1-2 and >2 nuclei per MHC+ cluster). […] Bars represent mean±SD. Data was quantified from 3-5 representative images for each group in FIG. 12D and FIG. 12E. […] Bars represent mean±SD of three experimental replicates. FIG. 12G provides representative images for C3H10T1/2 cells 16 days after infection with lentiviruses expressing dC-T and gRNAs targeting DMR-5 (MyoD distal enhancer) in a fibroblast-to-myoblast conversion assay as described in FIG. 12B. […] Stained in magenta for MHC, green for MyoD and blue for DAPI. Scale bar: 200 um. FIG. 12H depicts a fraction of MyoD positive cells 16 days after infection with lentiviruses expressing dC-T alone or with gRNAs targeting DMR-5. FIG. 12I show a number of nuclei in MHC+ cell clusters (grouped as 2-5, 6-10, 11-20 and >20 nuclei per MHC+ cluster) 16 days after infection. […] Data are quantified from 3-5 representative images for FIGS. 12H-12J. Bars represent mean±SD.
We then investigated whether targeted demethylation of DMR-5 would synergize with 5-Aza treatment to induce myotube formation (FIG. 12B). To follow the process of myotube formation after 5-Aza treatment, a time-course experiment was performed. Multi-nucleated myotube (MHC-positive) with heterogeneous sizes began to form 14 days post treatment, and both MyoD-positive cell ratio and myotube density and size then increased up to day-25 (FIGS. 12C-12E). […]

The subject of assay [3] is BDNF promoter IV. Put plainly: Bisulfite sequencing of BDNF promoter IV in mouse cortical neurons. It counts as cell-based. The note with it: KCl 50 mM, 6 hours. As to the method: as §1
DNA replication-independent active demethylation has been proposed to operate in post-mitotic neurons (Guo et al., 2011; Martinowich et al., 2003). To test whether active demethylation can be induced in post-mitotic neurons, we applied the dCas9-Tet1 system to study the regulation of the BDNF gene. BDNF expression can be induced by neuronal activity accompanied by demethylation of its promoter IV (Chen et al., 2003; Martinowich et al., 2003). We designed 4 gRNAs targeting 11 CpGs in BDNF promoter IV (FIG. 11A) to determine whether dCas9-Tet1 can activate BDNF by inducing demethylation of this promoter (FIG. 3A). […]

Assay [4] relates to BDNF promoter IV. Description: Tet-assisted bisulfite sequencing (TAB-seq) of 5-hmC in BDNF promoter IV. It counts as cell-based, mouse. The note with it: KCl treatment for 6 hours. The method, then: FIGS. 11A-11L depict targeted demethylation of BDNF promoter IV by dCas9-Tet1 in neurons. […] PAM for each gRNA is highlighted by a red box. […] Note that cultured neurons were treated with AraC on DIV2 to halt cell division in glial cells and neural progenitors. […] FIG. 11C provides EDU labeling analysis for the mouse primary neurons over the course of KCl treatment for 24 hrs. Note that extremely few EDU positive cells were observed. Stained in red for EDU, green for MAP2 and DAPI for nuclei. Scale bar: 500 um. FIG. 11D Upper panel: provides quantification of neuronal density over the course of KCl treatment. The post-mitotic neuron density remains steadily around 4.5×10^4/cm2 over time. Bars represent mean±SD of three experimental replicates. Lower panel: provides quantification of the EDU positive cells over the course of KCl treatment. Less than 2% of the cells are EDU-positive over 24 hrs. Bars represent mean±SD of three experimental replicates. FIG. 11E provides confocal micrographs of BDNF induction by ectopic expression of dCas9-Tet1 and a set of 4 gRNAs targeting BDNF promoter IV. Stained in green for BDNF, magenta for MAP2, red for Cherry and blue for DAPI. […]
Because post-mitotic neurons were used for these experiments, loss of methylation was likely due to active demethylation. […] Similarly, 5-hmC was also detected after KCl treatment (FIG. 11I). […]

As for `O=C(O)CCC(O)C(=O)O` (stereo not drawn) [2-hydroxygluterate, 2-Hydroxyglutarate, reference compound], the “effect on induction of BDNF expression by KCl treatment” value in assay [1] (10 mM for 2 hours, then KCl 50 mM for 6-hour) is reported as “completely abolished the induction of BDNF expression by KCl treatment”.
In the case of `Nc1ncn([C@@H]2O[C@H](CO)[C@@H](O)[C@H]2O)c(=O)n1` [5-Aza, 5-Azacytidine], in assay [2] (5-Aza (1 uM, 24-hour), 14 days after infection), the “MHC+ myotube formation” value is “induces MHC+ myotube formation”. The “fraction of mock C3H10T1/2 cells expressing MyoD” value in assay [2] (day 14) is listed as “around 6%”; in assay [2] (day 16), “around 13%”; in assay [2] (day 25) it was “around 20%”.
For the compound `C[C@]1(c2nc3c(C(N)=O)cccc3[nH]2)CCCN1` [ABT-888, reference compound], the “effect on activation of BDNF by KCl treatment” value in assay [1] (50 uM for 6 hours, then KCl 50 mM for 6-hour) is given as “reduced the activation of BDNF by KCl treatment”.
As for `[Cl-].[K+]` [KCl, reference compound], in assay [1] (KCl 50 mM treatment of DIV3 neurons), the BDNF expression entry was “induced BDNF expression”. Moreover, the “methylation of BDNF promoter IV CpGs (positions relative to transcription start site)” value in the assay with BDNF promoter IV [3] is “induced demethylation of CpGs at positions of −148, −66 and 19”. The “5-hmC level in BDNF promoter IV” value with BDNF promoter IV [4] is reported as “detected”.
